Among the data in patent US20240279214A1, “ALPHA4 BETA7 INEGRIN ANTAGONISTS AND USES THEREOF” (XinThera, Inc., priority 2022, published 2024) are EC50 values, retold here.

This test addresses T1, a4b7 integrin interaction with MadCAM-1 (Homo sapiens, UniProt P13612+P26010).
T1 construct: capture of a4b7 integrin expressing cells, RPMI8866; endogenous in cells; host or cells: RPMI8866
T1 sequence (P13612 34-1032): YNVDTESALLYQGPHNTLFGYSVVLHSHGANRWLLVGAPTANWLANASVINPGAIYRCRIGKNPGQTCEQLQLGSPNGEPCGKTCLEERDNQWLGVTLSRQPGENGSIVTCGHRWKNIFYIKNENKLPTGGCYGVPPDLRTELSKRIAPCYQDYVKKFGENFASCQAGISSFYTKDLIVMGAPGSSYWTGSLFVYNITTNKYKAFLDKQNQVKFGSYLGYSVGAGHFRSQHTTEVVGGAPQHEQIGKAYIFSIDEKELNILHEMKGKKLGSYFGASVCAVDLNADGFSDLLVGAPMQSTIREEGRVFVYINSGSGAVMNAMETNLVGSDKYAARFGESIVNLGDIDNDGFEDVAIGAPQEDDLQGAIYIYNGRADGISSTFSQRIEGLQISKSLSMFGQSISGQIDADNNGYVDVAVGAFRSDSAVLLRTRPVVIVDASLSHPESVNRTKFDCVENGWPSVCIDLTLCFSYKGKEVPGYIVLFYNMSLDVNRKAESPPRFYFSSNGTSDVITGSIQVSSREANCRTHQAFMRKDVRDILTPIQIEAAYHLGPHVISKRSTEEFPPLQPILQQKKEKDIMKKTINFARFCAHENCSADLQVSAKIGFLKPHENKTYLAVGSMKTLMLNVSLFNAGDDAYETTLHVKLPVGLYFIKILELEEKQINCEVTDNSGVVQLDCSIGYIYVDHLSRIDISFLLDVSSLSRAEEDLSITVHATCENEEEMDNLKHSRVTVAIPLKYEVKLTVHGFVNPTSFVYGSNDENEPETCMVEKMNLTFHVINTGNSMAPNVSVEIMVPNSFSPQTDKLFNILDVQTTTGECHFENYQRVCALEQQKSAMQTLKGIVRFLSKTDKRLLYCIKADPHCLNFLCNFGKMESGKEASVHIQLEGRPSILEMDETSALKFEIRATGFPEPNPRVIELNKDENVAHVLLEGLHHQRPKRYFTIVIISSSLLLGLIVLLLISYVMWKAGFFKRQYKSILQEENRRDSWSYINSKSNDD
T1 sequence (P26010 20-798): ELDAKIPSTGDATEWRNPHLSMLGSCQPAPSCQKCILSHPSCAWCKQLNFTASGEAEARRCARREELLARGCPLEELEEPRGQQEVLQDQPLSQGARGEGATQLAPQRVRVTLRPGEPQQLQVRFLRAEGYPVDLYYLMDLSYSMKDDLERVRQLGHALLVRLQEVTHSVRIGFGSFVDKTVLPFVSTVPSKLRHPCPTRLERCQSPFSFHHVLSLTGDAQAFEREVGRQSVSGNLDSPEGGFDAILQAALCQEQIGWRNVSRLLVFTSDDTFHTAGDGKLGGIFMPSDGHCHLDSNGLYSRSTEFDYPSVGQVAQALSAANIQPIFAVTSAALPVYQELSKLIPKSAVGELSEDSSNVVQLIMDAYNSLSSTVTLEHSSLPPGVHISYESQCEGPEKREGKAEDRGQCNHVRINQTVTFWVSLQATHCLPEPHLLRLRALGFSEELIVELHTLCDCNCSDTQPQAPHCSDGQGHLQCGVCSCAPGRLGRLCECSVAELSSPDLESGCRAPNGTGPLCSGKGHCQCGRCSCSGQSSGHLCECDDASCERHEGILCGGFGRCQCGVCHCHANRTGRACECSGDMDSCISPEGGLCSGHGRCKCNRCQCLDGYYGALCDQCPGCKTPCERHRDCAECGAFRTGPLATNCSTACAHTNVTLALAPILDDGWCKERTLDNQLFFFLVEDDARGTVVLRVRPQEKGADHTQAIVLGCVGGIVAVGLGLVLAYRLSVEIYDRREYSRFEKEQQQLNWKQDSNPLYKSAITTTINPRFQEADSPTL
Description: a4b7 Cell Capture Assay (RPMI8866 cells on MAdCAM-1 Fc coated plates). It is filed as cell-based. The following applies: 50% human serum, 1 mM MgCl2, 1 hour incubation, CellTiter-Glo luminescence, read-out: a4B7 cell capture assay RMPI8866-MadCAM EC50. Here is the method:
The potency of inhibitors in preventing a4b7 integrin interaction with MadCAM-1 was measured by monitoring the capture of a4b7 integrin expressing cells, RPMI8866, on recombinant human MAdCAM-1 Fc chimera protein-coated plates. The protein was a fusion between human MAdCAM-1 (Met1-Gln333, Accession #AAY82472) and human IgG1 (Pro100-Lys330)] (R&D Systems, Catalog #6056-MC). 96-well plates (Thermofisher, Catalog #136102) were coated with the recombinant protein by dispensing 100 μL (1.0 μg/mL) per well. After a quick spin to settle down the coating solution using a plate centrifuge, plates were incubated overnight at 4° C. in a moisture chamber. On Day 2, the plates were washed with PBS using a Bluecatbio Blue®Washer (GentleSpin wash, 3 cycles, pressure=1, volume 150 uL). Blocking solution (1.0% BSA in PBS, Sigma, Catalog #A7979) was then added at 200 uL/well, and the plates were quickly spun to settle down blocking buffer and incubated in cell culture incubator at 37° C. and 5% CO2 for 1 hour. The plates were then washed with 0.1% BSA in PBS using a Bluecatbio Blue®Washer (GentleSpin wash, 3 cycles, pressure=1, volume 150 uL). RPMI8866 cells suspended in assay medium (1 mM MgCl2 25 mM HEPES and 50% human serum, Sigma, Catalog #H4522) at a density of 1.0×10^6 cells/mL were added at 100 uL/well. Each compound evaluated was prepared as a DMSO stock solution. Test compounds were evaluated with a 9-point serial dilution curve (1000, 333.3, 111.1, 55.6, 27.8, 13.9, 6.9, 2.3, and 0.77 nM)) and were added to the plates using a Tecan D.30e Digita dispenser, the dispensed stock is 100 nL and the final DMSO concentration is 0.1%. Potent compounds were re-evaluated at a new 9-point serial dilution curve (100, 33.3, 11.1, 5.6, 2.8, 1.4, 0.69, 0.23, and 0.08 nM). Each titration curves were performed in triplicate on the same plate, and most of compounds were retested in different dates multiple times. The plates were shaken at 300 rpm on orbital plate shaker for 3 minutes to mix the cells and compounds, quickly spun to settle the cells and solution, and incubated in cell culture incubator at 37° C. and 5% CO2. After 1 hour incubation, the unbound cells were washed away with RPMI1640 medium supplemented with 1 mM MgCl2 and 1% BSA) (wash buffer) using a Bluecatbio Blue®Washer (MagbeadsSpin wash, 1 cycle, pressure 1, volume=150 uL). After wash buffer removal, A mixture of wash buffer/CellTiter-Glo® Reagent (Pormega, catalog #G7573) at 1:1 (V/V) was added at volume of 100 uL to each well. The plates were placed in a chamber at 25° C. and incubated for 30 minutes. Luminescence was recorded using a Envision plate reader 2105 according to CellTiter-Glo protocol.
The mean luminescence signals from negative control wells without MadCAM-1 coating and compound treatment (cells only) was defined as 100% binding inhibition, and the mean luminescence signals from positive control wells with MadCAM-1 coating but without compound treatment (MadCAM-1 and cells only) was defined as 0% binding inhibition. The luminescence signals from other compound treated wells were normalized in percentage scale accordingly. The normalized mean % inhibition data were plotted against logarithmic compound concentration in nanomolar and were fitted with 4-parameter logistic model to obtain IC50 for each compound.
Turning to `Cc1cc2cc(c1F)[C@H](CC(=O)O)NC(=O)[C@@H](n1cc(CCN3CC(F)C3)c(C(F)(F)F)cc1=O)c1cc(ccc1F)Oc1cc(C(F)(F)F)cc(C)c1-2` (single isomer, unassigned) [Example 64], the concentration for a half-maximal effect (EC50) (usually the concentration giving half of the maximal effect) came out at 6.4 nM.
As to `Cc1cccc2c1-c1cc(c(C)s1)[C@H](CC(=O)O)NC(=O)[C@@H](n1cc(CCN3CC(F)C3)c(C(F)(F)F)cc1=O)c1cc(ccc1F)CO2` (single isomer, unassigned) [Example 75], the EC50 is above 100 nM.
In the case of `Cc1cc2c(F)c(c1F)[C@H](CC(=O)O)NC(=O)[C@@H](n1cc(CCN3CC(F)C3)c(C(F)(F)F)cc1=O)c1cc(ccc1F)Oc1cccc(C)c1-2` (single isomer, unassigned) [Example 77] it was 15 nM.
Under `Cc1cccc2c1-c1cc(c(F)c(C(F)(F)F)c1)[C@H](CC(=O)O)NC(=O)[C@@H](n1cc(CCN(C)C)c(C(F)(F)F)cc1=O)c1cccc(c1)O2` (relative stereo) [Example 16, [(14R*,17S)-14-{5-[2-(dimethylamino)ethyl]-2-oxo-4-(trifluoromethyl)pyridin-1-yl}-19-fluoro-3-methyl-15-oxo-20-(trifluoromethyl)-8-oxa-16-azatetracyclo[16.3.1.1^{9,13}.0^{2,7}]tricosa-1(22),2(7),3,5,9,11,13(23),18,20-nonaen-17-yl]acetic acid] stands 14 nM.
Under `Cc1cc2cc(c1F)[C@H](CC(=O)O)NC(=O)[C@@H](n1cc(CCN3CC(F)C3)c(C(F)(F)F)cc1=O)c1cc(ccc1F)COc1cc(Cl)cc(C)c1-2` (single isomer, unassigned) [Example 47] stands 42 nM; under `Cc1cc2cc(c1F)[C@H](CC(=O)O)NC(=O)[C@@H](n1cc(CCN3CC(F)C3)c(C(F)(F)F)cc1=O)c1cc(ccc1F)Oc1nn(C)cc1-2` (single isomer, unassigned) [Example 43], 480 nM; under `Cc1cc2cc(c1F)[C@H](CC(=O)O)NC(=O)[C@@H](n1cc(CCN3CC(F)C3)c(C(F)(F)F)cc1=O)c1cc(ccc1F)Oc1cc(F)cc(C)c1-2` (relative stereo) [Example 26, [(14R*,17S)-5,12,19-trifluoro-14-{5-[2-(3-fluoroazetidin-1-yl)ethyl]-2-oxo-4-(trifluoromethyl)pyridin-1-yl}-3,20-dimethyl-15-oxo-8-oxa-16-azatetracyclo[16.3.1.1^{9,13}.0^{2,7}]tricosa-1(22),2(7),3,5,9,11,13(23),18,20-nonaen-17-yl]acetic acid], 1.3 nM.
Turning to `Cc1cc2cc(c1F)[C@H](CC(=O)O)NC(=O)[C@@H](n1ccc(C(F)(F)F)cc1=O)c1cc(ccc1F)Oc1cccc(C)c1-2` (single isomer, unassigned) [Example 42], the EC50 came to 13 nM.
In the case of `Cc1cc2cc(c1F)[C@H](CC(=O)O)NC(=O)[C@@H](n1cc(CCN3CC(F)C3)c(C(F)(F)F)cc1=O)c1cc(ccc1F)Oc1ccc(F)c(C)c1-2` (relative stereo) [Example 30, [(14R*,17S)-4,12,19-trifluoro-14-{5-[2-(3-fluoroazetidin-1-yl)ethyl]-2-oxo-4-(trifluoromethyl)pyridin-1-yl}-3,20-dimethyl-15-oxo-8-oxa-16-azatetracyclo[16.3.1.1^{9,13}.0^{2,7}]tricosa-1(22),2(7),3,5,9,11,13(23),18,20-nonaen-17-yl]acetic acid] it was 2.6 nM.
For `Cc1cccc2c1-c1cc(c(F)c(C(F)(F)F)c1)[C@H](CC(=O)O)NC(=O)[C@@H](n1cc(CCN3CC(F)C3)c(C(F)(F)F)cc1=O)c1cc(cc(C(F)(F)F)c1)O2` (relative stereo) [Example 14, [(14R*,17S)-19-fluoro-14-{5-[2-(3-fluoroazetidin-1-yl)ethyl]-2-oxo-4-(trifluoromethyl)pyridin-1-yl}-3-methyl-15-oxo-11,20-bis(trifluoromethyl)-8-oxa-16-azatetracyclo[16.3.1.1^{9,13}.0^{2,7}]tricosa-1(22),2(7),3,5,9,11,13(23),18,20-nonaen-17-yl]acetic acid], the EC50 is 38 nM.
In the case of `COC1CN(c2cc(C)c3c(c2)Oc2ccc(F)c(c2)[C@H](n2cc(CCN4CC(F)C4)c(C(F)(F)F)cc2=O)C(=O)N[C@@H](CC(=O)O)c2cc-3cc(C)c2F)C1` (single isomer, unassigned) [Example 41] it was 21 nM; in that of `Cc1cccc2c1-c1cc(C3CC3)c(F)c(c1)[C@H](CC(=O)O)NC(=O)[C@@H](n1cc(CCN3CC(F)C3)c(C(F)(F)F)cc1=O)c1cc(ccc1F)O2` (relative stereo) [Example 24, [(14R*,17S)-20-cyclopropyl-12,19-difluoro-14-{5-[2-(3-fluoroazetidin-1-yl)ethyl]-2-oxo-4-(trifluoromethyl)pyridin-1-yl}-3-methyl-15-oxo-8-oxa-16-azatetracyclo[16.3.1.1^{9,13}.0^{2,7}]tricosa-1(22),2(7),3,5,9,11,13(23),18,20-nonaen-17-yl]acetic acid], 1.9 nM.
